8 compounds from ChEMBL document CHEMBL4325871 (Eur J Med Chem, 2019) can be followed below.

Assay [1] addresses T1, Tau-tubulin kinase 1 (Homo sapiens, UniProt Q5TCY1).
Assay [2] concerns the target Tyrosine-protein kinase JAK3 (Homo sapiens) (UniProt P52333). The experiment in a line: Inhibition of human JAK3 assessed as residual activity at 100 uM using poly[Glu:Tyr] (4:1) as substrate by [gamma-33P]-ATP assay relative to control.
Assay [3] concerns the target T2, Homeodomain-interacting protein kinase 1 (Homo sapiens, UniProt Q86Z02). Kind of assay: Inhibition of human HIPK1 assessed as residual activity at 100 uM using MBP as substrate by [gamma-33P]-ATP assay relative to control.
The target of assay [4] is T2, Homeodomain-interacting protein kinase 1.
Assay [5] deals with T3, Mitogen-activated protein kinase kinase kinase 8 (Homo sapiens, UniProt P41279).
In assay [6] the target is T3, Mitogen-activated protein kinase kinase kinase 8. Kind of assay: Inhibition of human COT1 assessed as residual activity at 100 uM using MEK1 as substrate by [gamma-33P]-ATP assay relative to control.
Assay [7] addresses T4, Serine/threonine-protein kinase VRK2 (Homo sapiens, UniProt Q86Y07). Kind of assay: Inhibition of human VRK2 assessed as residual activity at 100 uM using casein as substrate by [gamma-33P]-ATP assay relative to control.
For assay [8], the target named is T4, Serine/threonine-protein kinase VRK2.
The target in assay [9] is Serine/threonine-protein kinase VRK1 (Homo sapiens, UniProt Q99986).
Assay [10] addresses T5, Mitogen-activated protein kinase kinase kinase kinase 1 (Homo sapiens, UniProt Q92918). Kind of assay: Inhibition of human HPK1 assessed as residual activity at 100 uM using MBP as substrate by [gamma-33P]-ATP assay relative to control.
Assay [11] concerns the target T5, Mitogen-activated protein kinase kinase kinase kinase 1.
In assay [12] the target is T6, TGF-beta receptor type-2 (Homo sapiens, UniProt P37173).
The target in assay [13] is Activin receptor type-1-like (Homo sapiens) (UniProt P37023). Kind of assay: Inhibition of human ALK1 assessed as residual activity at 100 uM using casein as substrate by [gamma-33P]-ATP assay relative to control.
Assay [14] addresses T6, TGF-beta receptor type-2. Kind of assay: Inhibition of human TGFBR2 assessed as residual activity at 100 uM using MBP as substrate by [gamma-33P]-ATP assay relative to control.
In assay [15] the target is Bone morphogenetic protein receptor type-1B (Homo sapiens) (UniProt O00238). Kind of assay: Inhibition of human ALK6 assessed as residual activity at 100 uM using casein as substrate by [gamma-33P]-ATP assay relative to control.
In assay [16] the target is Activin receptor type-1B (Homo sapiens) (UniProt P36896). Kind of assay: Inhibition of human ALK4 assessed as residual activity at 100 uM using casein as substrate by [gamma-33P]-ATP assay relative to control.
For assay [17], the target named is Bone morphogenetic protein receptor type-1A (Homo sapiens) (UniProt P36894). The experiment in a line: Inhibition of human ALK3 assessed as residual activity at 100 uM using casein as substrate by [gamma-33P]-ATP assay relative to control.
Assay [18] concerns the target Dual specificity tyrosine-phosphorylation-regulated kinase 4 (Homo sapiens, UniProt Q9NR20).
Assay [19] deals with Serine/threonine-protein kinase A-Raf (Homo sapiens, UniProt P10398).
Assay [20] addresses T7, Serine/threonine-protein kinase A-Raf (Homo sapiens) (UniProt P10398).
T7 sequence (whole entry): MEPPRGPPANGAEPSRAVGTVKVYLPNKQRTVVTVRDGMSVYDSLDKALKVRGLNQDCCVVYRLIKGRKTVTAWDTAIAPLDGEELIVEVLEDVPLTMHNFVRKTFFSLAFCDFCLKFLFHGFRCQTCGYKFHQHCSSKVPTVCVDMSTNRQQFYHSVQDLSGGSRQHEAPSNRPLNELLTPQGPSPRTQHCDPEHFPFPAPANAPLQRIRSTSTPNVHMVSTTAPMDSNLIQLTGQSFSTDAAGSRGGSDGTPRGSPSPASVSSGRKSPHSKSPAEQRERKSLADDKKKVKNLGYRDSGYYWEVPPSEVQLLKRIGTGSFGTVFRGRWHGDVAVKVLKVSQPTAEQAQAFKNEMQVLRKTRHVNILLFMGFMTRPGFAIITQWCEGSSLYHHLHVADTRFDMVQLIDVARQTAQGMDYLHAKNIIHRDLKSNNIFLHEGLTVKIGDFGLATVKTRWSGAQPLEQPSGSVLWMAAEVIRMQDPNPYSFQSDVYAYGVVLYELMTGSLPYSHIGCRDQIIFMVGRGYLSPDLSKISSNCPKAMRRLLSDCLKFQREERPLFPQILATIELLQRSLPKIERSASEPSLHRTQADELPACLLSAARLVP
The experiment in a line: Inhibition of human ARAF assessed as residual activity at 100 uM using MEK1 as substrate by [gamma-33P]-ATP assay relative to control.

The target in assay [21] is T8, Receptor-interacting serine/threonine-protein kinase 3 (Homo sapiens, UniProt Q9Y572).
The target in assay [22] is T8, Receptor-interacting serine/threonine-protein kinase 3. The experiment in a line: Inhibition of human RIPK3 assessed as residual activity at 100 uM using MBP as substrate by [gamma-33P]-ATP assay relative to control.
Assay [23] addresses T9, Casein kinase II subunit alpha (Homo sapiens, UniProt P68400). The experiment in a line: Inhibition of human CK2A assessed as residual activity at 100 uM using RRRDDDSDDD as substrate by [gamma-33P]-ATP assay relative to control.
For assay [24], the target named is Dual specificity tyrosine-phosphorylation-regulated kinase 4 (Homo sapiens) (UniProt Q9NR20). The experiment in a line: Inhibition of human DYRK4 assessed as residual activity at 100 uM using RRRFRPASPLRGPPK as substrate by [gamma-33P]-ATP assay relative to control.
The target in assay [25] is T10, Mitogen-activated protein kinase kinase kinase 20 (Homo sapiens, UniProt Q9NYL2).
The target of assay [26] is T9, Casein kinase II subunit alpha.
Assay [27] deals with T10, Mitogen-activated protein kinase kinase kinase 20. The experiment in a line: Inhibition of human ZAK assessed as residual activity at 100 uM using MBP as substrate by [gamma-33P]-ATP assay relative to control.
The target in assay [28] is T1, Tau-tubulin kinase 1. The experiment in a line: Inhibition of human TTBK1 assessed as residual activity at 100 uM using MBP as substrate by [gamma-33P]-ATP assay relative to control.
Assay [29] deals with Tau-tubulin kinase 2 (Homo sapiens) (UniProt Q6IQ55). Kind of assay: Inhibition of human TTBK2 assessed as residual activity at 100 uM using MBP as substrate by [gamma-33P]-ATP assay relative to control.
The target in assay [30] is Mitogen-activated protein kinase 11 (Homo sapiens) (UniProt Q15759). The experiment in a line: Inhibition of human p38beta assessed as residual activity at 100 uM using MBP as substrate by [gamma-33P]-ATP assay relative to control.
Assay [31] concerns the target T11, Serine/threonine-protein kinase Nek6 (Homo sapiens, UniProt Q9HC98).
Assay [32] has as its target T12, Serine/threonine-protein kinase Nek7 (Homo sapiens, UniProt Q8TDX7). The experiment in a line: Inhibition of human NEK7 assessed as residual activity at 100 uM using casein as substrate by [gamma-33P]-ATP assay relative to control.
Assay [33] has as its target T11, Serine/threonine-protein kinase Nek6. The experiment in a line: Inhibition of human NEK6 assessed as residual activity at 100 uM using casein as substrate by [gamma-33P]-ATP assay relative to control.
The target in assay [34] is T12, Serine/threonine-protein kinase Nek7.
Assay [35] addresses T13, Serine/threonine-protein kinase WNK3 (Homo sapiens, UniProt Q9BYP7).
Assay [36] has as its target T13, Serine/threonine-protein kinase WNK3. The experiment in a line: Inhibition of human WNK3 assessed as residual activity at 100 uM using MBP as substrate by [gamma-33P]-ATP assay relative to control.
Assay [37] deals with Wee1-like protein kinase (Homo sapiens) (UniProt P30291). Kind of assay: Inhibition of human WEE1 assessed as residual activity at 100 uM using MBP as substrate by [gamma-33P]-ATP assay relative to control.

pIC50: −log10 of the molar value. Where only a bound is given, the exact number is not on record here.

For orientation: pIC50 means the negative decadic logarithm of the IC50, by convention in mol/L. Lower therefore signals a high IC50.

T11 sequence (Q9HC98 whole entry): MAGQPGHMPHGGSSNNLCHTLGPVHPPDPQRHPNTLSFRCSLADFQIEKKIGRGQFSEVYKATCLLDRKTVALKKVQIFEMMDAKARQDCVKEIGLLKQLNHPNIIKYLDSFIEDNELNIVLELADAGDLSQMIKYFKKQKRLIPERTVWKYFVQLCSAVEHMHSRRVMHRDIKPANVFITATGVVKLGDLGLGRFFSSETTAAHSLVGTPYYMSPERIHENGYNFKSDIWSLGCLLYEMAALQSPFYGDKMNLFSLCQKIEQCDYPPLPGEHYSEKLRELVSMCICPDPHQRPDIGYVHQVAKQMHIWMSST
T4 sequence (Q86Y07 whole entry): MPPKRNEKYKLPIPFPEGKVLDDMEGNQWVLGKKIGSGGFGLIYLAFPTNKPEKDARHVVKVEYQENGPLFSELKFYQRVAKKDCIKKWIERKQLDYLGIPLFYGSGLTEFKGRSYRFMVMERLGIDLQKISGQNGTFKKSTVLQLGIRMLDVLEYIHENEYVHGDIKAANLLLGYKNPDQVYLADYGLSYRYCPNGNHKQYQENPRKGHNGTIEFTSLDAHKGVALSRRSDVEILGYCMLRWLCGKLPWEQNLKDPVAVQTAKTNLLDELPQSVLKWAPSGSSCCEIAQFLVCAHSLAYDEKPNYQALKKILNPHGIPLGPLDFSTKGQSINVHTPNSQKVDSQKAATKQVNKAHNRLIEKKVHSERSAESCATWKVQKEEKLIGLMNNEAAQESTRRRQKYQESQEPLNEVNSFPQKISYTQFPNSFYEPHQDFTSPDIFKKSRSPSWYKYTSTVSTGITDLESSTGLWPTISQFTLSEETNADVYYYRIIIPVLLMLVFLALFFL
T13 sequence (Q9BYP7 whole entry): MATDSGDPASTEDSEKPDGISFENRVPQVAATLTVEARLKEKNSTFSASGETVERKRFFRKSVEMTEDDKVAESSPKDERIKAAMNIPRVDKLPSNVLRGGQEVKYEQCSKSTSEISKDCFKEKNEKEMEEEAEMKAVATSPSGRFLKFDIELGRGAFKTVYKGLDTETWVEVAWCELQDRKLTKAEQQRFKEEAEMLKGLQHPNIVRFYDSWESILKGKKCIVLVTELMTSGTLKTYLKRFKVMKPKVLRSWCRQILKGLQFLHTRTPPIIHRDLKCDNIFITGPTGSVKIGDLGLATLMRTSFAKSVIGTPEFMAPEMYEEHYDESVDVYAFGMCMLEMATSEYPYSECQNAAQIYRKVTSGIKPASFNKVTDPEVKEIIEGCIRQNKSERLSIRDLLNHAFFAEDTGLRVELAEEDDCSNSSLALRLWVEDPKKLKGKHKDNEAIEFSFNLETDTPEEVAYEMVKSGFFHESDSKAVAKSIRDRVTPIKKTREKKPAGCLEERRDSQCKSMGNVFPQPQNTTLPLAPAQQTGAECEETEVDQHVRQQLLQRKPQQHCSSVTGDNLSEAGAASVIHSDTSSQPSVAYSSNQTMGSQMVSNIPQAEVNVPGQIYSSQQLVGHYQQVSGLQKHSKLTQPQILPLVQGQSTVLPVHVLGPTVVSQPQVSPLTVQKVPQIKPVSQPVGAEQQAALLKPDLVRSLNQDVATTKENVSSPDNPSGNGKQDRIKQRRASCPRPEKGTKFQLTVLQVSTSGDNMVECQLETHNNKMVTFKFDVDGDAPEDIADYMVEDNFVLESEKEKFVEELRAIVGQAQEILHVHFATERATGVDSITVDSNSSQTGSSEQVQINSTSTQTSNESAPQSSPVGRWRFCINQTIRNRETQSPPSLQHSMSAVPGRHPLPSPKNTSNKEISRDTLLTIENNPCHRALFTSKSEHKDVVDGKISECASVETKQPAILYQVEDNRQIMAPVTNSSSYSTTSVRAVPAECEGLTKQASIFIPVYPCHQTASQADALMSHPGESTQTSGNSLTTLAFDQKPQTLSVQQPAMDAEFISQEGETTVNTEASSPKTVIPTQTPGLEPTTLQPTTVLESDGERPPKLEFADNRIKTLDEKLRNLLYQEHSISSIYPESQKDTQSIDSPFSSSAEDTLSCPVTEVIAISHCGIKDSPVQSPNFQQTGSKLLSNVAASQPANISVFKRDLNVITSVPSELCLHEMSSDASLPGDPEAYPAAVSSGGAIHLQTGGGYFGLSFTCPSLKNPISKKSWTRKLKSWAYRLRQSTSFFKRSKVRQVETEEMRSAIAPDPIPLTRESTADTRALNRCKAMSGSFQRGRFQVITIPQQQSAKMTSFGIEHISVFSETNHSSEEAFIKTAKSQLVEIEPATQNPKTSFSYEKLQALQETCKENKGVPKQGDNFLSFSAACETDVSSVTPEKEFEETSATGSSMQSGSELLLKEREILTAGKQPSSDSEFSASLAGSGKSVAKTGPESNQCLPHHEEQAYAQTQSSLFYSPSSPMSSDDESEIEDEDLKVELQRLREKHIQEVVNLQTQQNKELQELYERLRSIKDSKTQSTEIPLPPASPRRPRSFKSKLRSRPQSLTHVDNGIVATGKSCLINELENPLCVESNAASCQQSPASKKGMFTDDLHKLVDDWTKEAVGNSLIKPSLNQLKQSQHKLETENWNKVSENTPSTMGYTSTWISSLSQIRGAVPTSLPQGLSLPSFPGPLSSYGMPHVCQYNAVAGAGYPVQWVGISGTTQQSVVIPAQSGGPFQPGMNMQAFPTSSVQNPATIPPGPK
T3 sequence (P41279 whole entry): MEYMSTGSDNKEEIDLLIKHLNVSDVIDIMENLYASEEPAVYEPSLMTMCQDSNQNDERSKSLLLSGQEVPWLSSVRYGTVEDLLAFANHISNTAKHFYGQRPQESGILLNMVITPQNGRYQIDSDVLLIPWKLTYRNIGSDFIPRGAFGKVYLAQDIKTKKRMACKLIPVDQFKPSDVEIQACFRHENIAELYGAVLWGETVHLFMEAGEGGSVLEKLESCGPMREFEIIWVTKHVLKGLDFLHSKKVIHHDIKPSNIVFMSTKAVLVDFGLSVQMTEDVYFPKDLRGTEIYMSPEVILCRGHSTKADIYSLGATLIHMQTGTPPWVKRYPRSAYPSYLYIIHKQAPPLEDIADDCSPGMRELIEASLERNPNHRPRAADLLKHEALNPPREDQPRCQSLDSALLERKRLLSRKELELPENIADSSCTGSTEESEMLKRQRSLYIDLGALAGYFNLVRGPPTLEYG
T1 sequence (Q5TCY1 whole entry): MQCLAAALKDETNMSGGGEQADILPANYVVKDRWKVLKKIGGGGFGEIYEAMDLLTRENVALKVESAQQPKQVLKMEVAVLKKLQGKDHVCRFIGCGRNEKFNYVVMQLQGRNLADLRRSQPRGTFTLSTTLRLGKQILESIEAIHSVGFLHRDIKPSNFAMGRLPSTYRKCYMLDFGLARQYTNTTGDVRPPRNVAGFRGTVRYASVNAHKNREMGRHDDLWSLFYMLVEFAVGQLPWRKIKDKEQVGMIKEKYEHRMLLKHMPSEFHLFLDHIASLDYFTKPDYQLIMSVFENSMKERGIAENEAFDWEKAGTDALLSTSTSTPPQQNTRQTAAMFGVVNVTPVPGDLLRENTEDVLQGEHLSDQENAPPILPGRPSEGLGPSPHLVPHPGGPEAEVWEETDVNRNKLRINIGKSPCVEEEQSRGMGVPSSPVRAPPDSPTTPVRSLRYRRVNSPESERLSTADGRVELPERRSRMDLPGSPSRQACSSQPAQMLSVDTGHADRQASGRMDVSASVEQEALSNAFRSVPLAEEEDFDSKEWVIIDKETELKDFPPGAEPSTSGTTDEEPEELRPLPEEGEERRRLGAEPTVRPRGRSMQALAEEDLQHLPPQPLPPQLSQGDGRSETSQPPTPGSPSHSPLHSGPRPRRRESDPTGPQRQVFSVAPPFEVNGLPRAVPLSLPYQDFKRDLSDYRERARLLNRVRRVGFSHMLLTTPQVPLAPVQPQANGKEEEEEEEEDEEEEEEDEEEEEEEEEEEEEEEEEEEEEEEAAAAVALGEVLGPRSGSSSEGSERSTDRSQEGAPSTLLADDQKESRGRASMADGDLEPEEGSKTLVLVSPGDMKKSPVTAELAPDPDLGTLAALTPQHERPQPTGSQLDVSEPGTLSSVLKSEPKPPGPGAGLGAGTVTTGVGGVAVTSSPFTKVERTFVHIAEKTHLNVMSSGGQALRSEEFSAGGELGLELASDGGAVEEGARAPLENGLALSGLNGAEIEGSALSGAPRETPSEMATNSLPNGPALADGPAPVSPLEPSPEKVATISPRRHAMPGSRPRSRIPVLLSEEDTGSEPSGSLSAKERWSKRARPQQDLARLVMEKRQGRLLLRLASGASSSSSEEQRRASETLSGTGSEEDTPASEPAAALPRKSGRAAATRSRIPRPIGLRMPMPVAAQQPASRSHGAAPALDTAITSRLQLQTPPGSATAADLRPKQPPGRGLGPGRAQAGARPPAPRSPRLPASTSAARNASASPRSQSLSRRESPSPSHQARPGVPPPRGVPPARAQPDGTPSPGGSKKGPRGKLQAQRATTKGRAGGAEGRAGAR
T6 sequence (P37173 whole entry): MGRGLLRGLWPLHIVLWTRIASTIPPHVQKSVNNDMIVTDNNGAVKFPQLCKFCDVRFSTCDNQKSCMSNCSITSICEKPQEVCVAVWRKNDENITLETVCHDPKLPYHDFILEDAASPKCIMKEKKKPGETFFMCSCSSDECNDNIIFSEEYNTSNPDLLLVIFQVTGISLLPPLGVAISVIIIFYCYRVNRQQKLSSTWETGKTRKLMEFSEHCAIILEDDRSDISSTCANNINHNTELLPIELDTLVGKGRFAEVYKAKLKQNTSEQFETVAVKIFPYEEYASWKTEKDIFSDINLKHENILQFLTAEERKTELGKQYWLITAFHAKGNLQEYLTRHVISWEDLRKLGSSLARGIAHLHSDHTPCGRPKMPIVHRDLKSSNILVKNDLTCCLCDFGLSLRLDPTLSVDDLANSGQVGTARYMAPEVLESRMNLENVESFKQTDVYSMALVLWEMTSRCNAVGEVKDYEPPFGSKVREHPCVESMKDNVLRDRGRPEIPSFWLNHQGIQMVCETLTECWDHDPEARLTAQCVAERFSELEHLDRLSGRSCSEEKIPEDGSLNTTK

On Tau-tubulin kinase 1 [1], `Oc1ccc(-c2nc(-c3ccncc3)c(-c3ccc(F)cc3)[nH]2)cc1` [SB-202190] showed a pIC50 of 4.33.

For the compound `CCOc1nc(NC(=O)Cc2cc(OC)ccc2OC)cc(N)c1C#N`, the Activity in assay [2] was less than 65%.

On to `Cn1cc(C2=C(c3cn(CCCSC(=N)N)c4ccccc34)C(=O)NC2=O)c2ccccc21` [BISINDOLYLMALEIMIDE IX], for which the Activity in assay [3], in assay [6], in [7] and in assay [10] was less than 65% in each case. The pIC50 was 6.21 in [4]; 5.00 in [5]; 4.79 in assay [8]; 6.13 in assay [9]; 7.28 in [11].

At TGF-beta receptor type-2 [12], `c1ccc2c(-c3cnn4cc(-c5ccc(N6CCNCC6)cc5)cnc34)ccnc2c1` had a pIC50 of 6.81. Further, the Activity (in [13]; at TGF-beta receptor type-2 [14]; in assay [15]; in assay [16]; in assay [17]) was less than 65% in each case.

Take `O=C1Nc2ccc(I)cc2C1=Cc1cc(Br)c(O)c(Br)c1` [GW305074X]: the pIC50 in assay [18] was 5.36; in assay [19], 7.84; in assay [21], 5.27; in assay [25], 5.72; in assay [26], 6.55. Moreover, the Activity in assay [20], in [22], in assay [23], in assay [24] and in assay [27] was less than 65% throughout.

As for `Oc1ccc(-c2nc(-c3ccc(F)cc3)c(-c3ccncc3)[nH]2)cc1`, the Activity (on Tau-tubulin kinase 1 [28]; in assay [29]; in [30]) was less than 65% each time.

With `O=C1Nc2ccc3ncsc3c2/C1=C/c1c[nH]cn1`, the negative-log IC50 (pIC50) in [31] is 4.22; in assay [34] it was 5.14. Moreover, the Activity in assay [32] and in [33] was less than 65% each time.

Compound `C=CCn1c(=O)c2cnc(Nc3ccc(N4CCN(C)CC4)cc3)nc2n1-c1cccc(C(C)(C)O)n1` [ADAVOSERTIB] showed a pIC50 in [35] of 5.64. The Activity in assay [36] and in [37] was less than 65% throughout.
